Measurements taken from patent publication US8846849B2, “Tissue sealants from plasma derived proteins” (Ethicon, Inc., priority 2011, dated 2014).

How the values were obtained:
[1] = Hydrolysis of NHS active esters in D2O monitored by NMR; assay type: physicochemical; settings: in D2O at 25° C.; for Estimated Time for 95% Hydrolysis / Estimated Time for 10% Hydrolysis: NMR; for k = Constant in % Hydrolysis, y = k Exp(−mx) / m = Relative Rate in % Hydrolysis, y = k Exp(−mx): x = Time
Method: The relative reactivity of the active esters was determined by monitoring the rate of hydrolytic degradation in D2O at room temperature by NMR as shown in FIG. 4.
Various NHS active esters shown in FIG. 4 are the 4-Arm-TKHEED-Diglycolate-NHS (T-Dig-NHS or T-DG-N), the 4-Arm-Quadrol-Diglycolate-NHS (Q-Dig-NHS or Q-DG-N), the 4-Arm-PEG-Diglycolate-NHS (PEG-Dig-NHS or PEG-DG-N), the 4-Arm-TKHEED-Glutarate-NHS (T-Glut-NHS or T-Glut-N), and the 2-Arm-PEG-Diacid-NHS (PEG-NHS). It was observed that diglycolate-containing esters are the fastest hydrolyzing active esters, meaning to hydrolyze more than 95% in about 30 to 60 minutes irrespective of the core structure. […] These compounds appear to hydrolyze only about 10% or less in about 80 to 100 minutes.
Hydrolysis degradation parameters are summarized in Table 1 qualitatively from the chart in FIG. 4. It is observed that the Relative Rate, m, (in the exponential equation) for all the Diglycolate-NHS esters are within about 20% of each other. However, the rates are much faster than the others; for example, T-Dig-NHS (or T-DG-N) is 144 times faster than T-Glut-NHS, and 98 times faster than PEG-NHS. The degradation profiles of cross-linker A (T-DG-NHS), B (Q-Dig-NHS) and C (PEG-Dig-NHS) correspond to the instant invention, while the crosslinking agent D (T-Glut-NHS) and E (PEG-NHS) correspond to control groups.

[2] = Water solubility of diglycolate-NHS esters; assay type: physicochemical
[3] = target: T1, fibrinogen (BAC-2) solution (Homo sapiens, UniProt P02671+P02675+P02679); assay: Qualitative rate of gelation of BAC-2 (fibrinogen) solution with active ester cross-linker; settings: weight ratio cross-linker to fibrinogen 1:1, fibrinogen approx. 70 mg/ml, room temperature
T1 construct: Powdered BAC-2, a blood plasma derived product was obtained from Omrix BioPharmaceuticals; purchased Omrix BioPharmaceuticals; host or cells: blood plasma
T1 sequence (P02671 20-629 limits assumed): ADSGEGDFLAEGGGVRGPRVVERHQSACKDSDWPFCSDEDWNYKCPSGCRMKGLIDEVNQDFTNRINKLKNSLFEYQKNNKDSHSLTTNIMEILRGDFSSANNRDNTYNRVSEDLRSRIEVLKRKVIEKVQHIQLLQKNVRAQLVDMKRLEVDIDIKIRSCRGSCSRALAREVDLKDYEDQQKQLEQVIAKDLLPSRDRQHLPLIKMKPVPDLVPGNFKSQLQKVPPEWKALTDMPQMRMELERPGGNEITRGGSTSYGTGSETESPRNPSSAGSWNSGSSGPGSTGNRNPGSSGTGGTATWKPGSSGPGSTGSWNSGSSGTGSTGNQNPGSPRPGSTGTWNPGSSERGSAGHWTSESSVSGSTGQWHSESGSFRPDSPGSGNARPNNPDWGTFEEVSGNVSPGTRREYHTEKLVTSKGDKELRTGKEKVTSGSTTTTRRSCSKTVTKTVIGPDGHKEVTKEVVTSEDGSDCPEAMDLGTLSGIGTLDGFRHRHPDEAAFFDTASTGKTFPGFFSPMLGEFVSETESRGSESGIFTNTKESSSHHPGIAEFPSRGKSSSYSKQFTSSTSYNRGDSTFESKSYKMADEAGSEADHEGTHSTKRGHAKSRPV
T1 sequence (P02675 31-491): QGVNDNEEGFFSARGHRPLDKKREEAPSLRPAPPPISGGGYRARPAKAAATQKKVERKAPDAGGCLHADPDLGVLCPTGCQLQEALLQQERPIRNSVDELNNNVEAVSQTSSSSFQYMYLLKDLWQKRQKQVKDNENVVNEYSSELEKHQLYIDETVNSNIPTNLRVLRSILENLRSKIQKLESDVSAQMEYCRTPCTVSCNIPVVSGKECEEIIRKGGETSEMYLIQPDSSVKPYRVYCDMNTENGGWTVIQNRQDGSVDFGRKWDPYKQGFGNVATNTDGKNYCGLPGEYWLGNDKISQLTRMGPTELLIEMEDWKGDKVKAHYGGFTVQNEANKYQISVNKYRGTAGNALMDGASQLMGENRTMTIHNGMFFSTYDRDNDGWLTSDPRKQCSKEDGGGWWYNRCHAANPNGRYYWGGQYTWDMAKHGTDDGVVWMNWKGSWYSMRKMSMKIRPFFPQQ
T1 sequence (P02679 27-433 limits assumed): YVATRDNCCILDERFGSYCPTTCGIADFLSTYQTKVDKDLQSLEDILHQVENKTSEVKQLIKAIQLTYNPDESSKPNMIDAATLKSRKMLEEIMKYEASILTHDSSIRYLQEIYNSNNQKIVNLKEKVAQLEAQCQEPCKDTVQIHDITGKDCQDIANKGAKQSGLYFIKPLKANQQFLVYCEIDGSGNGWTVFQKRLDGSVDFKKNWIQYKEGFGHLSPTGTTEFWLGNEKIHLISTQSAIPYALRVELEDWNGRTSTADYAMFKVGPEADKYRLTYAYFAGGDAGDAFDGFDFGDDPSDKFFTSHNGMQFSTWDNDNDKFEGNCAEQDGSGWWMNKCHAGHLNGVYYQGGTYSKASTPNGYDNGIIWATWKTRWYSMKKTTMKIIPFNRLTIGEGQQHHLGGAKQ
Method: Sealants based on the inventive compositions were prepared by using an aqueous solution of BAC-2 (about 7% fibrinogen, or 70 mg/ml) where the crosslinking agent in the form of a powder was added at a selected composition and mixed well for 1 to 2 minutes up to gellation.
Crosslinking agents A, B, C correspond to the instant invention, while D and E correspond to control groups. The solid NHS ester, preferably in a powder form, was added to the BAC-2 solution at room temperature in a test tube at a weight ratio of 1 to 1 for active ester to fibrinogen, and mixed well. The time for gelation, defined qualitatively as the point when the BAC-2 solution in the test tube no longer flowed, was noted and recorded as shown in Table 2.
Sealants were prepared using an aqueous solution of fibrinogen (about 7% solution), where powder of either T-DG-N or PEG-DG-N was added at a selected composition based on the fibrinogen content. […] The in vitro rate of degradation of the hydrogel (or sealant) was determined in an enzymatic medium of plasmin at a concentration of 3.3 microgram/ml by determining the % clot remaining by gravimetric method after a given duration of exposure.

[4] = Hydrolytic degradation of sealant in de-ionized water at 37° C. by pH profiling; assay type: physicochemical; settings: deionized water 37° C., constant pH 7.4
Method: Sealant with ester links undergoing hydrolytic degradation in PBS at 37° C. was evaluated by the % weight loss method. Sealant degradation in de-ionized (DI) water causes the pH level of the solution to […], which can be titrated by addition of a basic compound to maintain a constant pH of 7.4 at 37° C. until such time that no more basic compound was needed to maintain a neutral solution; the total time for titration was noted.
As the Diglycolate-NHS/BAC-2 system is a hydrogel of fibrinogen with ester based cross-links, its degradation was followed in the pH profiler of de-ionized water at 37° C., where a base was added to neutralize the acid formed upon ester hydrolysis with time, to maintain a constant neutral pH. Cross-linker weight % was varied based on fibrinogen content.

Row | Estimated Time for 95% Hydrolysis [1] [min] | water solubility [2] | Qualitative observation of Gelation [3] [min] | Longevity of sealant, Avg. ([4]; NHS cross-linker 30 wt % based on fibrinogen) [days] | Longevity of sealant, Avg. ([4]; NHS cross-linker 50 wt % based on fibrinogen) [days] | Longevity of sealant, Avg. ([4]; NHS cross-linker 60 wt % based on fibrinogen) [days] | Compound | k = Constant in % Hydrolysis, y = k Exp(−mx) [1] | m = Relative Rate in % Hydrolysis, y = k Exp(−mx) [1] | Estimated Time for 10% Hydrolysis [1] [min] | hydrolysis rate, times faster than PEG-NHS [1] [times] | hydrolysis rate, times faster than T-Glut-NHS [1] [times]
1 | 60 | about 25% | 1 to 2 | – | – | – | 4-Arm-Quadrol-Diglycolate-NHS [Q-DG-N] | 107 | 0.084 | – | – | –
2 | – | – | 15 to 30 | – | – | – | O=C(CCOCCOCCOCCOCCOCCOCCOCCOCCOCCC(=O)ON1C(=O)CCC1=O)ON1C(=O)CCC1=O [PEG-NHS, Bis-dPEG(9)-NHS ester, reference compound] | 98 | 0.00106 | 80 | – | –
3 | 30 | more than 85% | 1 to 2 | 2.7 | 7.1 | 16.7 | O=C(COCC(=O)ON1C(=O)CCC1=O)OCCN(CCOC(=O)COCC(=O)ON1C(=O)CCC1=O)CCN(CCOC(=O)COCC(=O)ON1C(=O)CCC1=O)CCOC(=O)COCC(=O)ON1C(=O)CCC1=O [T-DG-N, 4-Arm TKHEED-tetra Diglycolate-tetra-NHS ester] | 62 | 0.104 | – | 98 | 144

Row | Compound | Estimated Time for 95% Hydrolysis [1] [min] | water solubility [2] | Qualitative observation of Gelation [3] [min] | Longevity of sealant, Avg. ([4]; NHS cross-linker 30 wt % based on fibrinogen) [days] | Longevity of sealant, Avg. ([4]; NHS cross-linker 50 wt % based on fibrinogen) [days] | Longevity of sealant, Avg. ([4]; NHS cross-linker 60 wt % based on fibrinogen) [days] | k = Constant in % Hydrolysis, y = k Exp(−mx) [1] | m = Relative Rate in % Hydrolysis, y = k Exp(−mx) [1] | Estimated Time for 10% Hydrolysis [1] [min] | hydrolysis rate, times faster than PEG-NHS [1] [times] | hydrolysis rate, times faster than T-Glut-NHS [1] [times]
4 | 4-Arm-TKHEED-Glutarate-NHS [T-Glut-NHS, reference compound] | – | – | 30 to 60 | – | – | – | 65 | 0.00072 | 100 | – | –
